Test system: Factor XIIIa
Assay: Factor XIIIa inhibitor assay (14C-putrescine incorporation into N,N-dimethyl-casein)
Type: biochemical, human
Protocol: The Factor XIIIa inhibitor activity may be determined by an assay described in Methods in Enzymology, Vol. 45, Ch 15, pages 177-191 (1976) and using Factor XIII isolated from human plasma. Briefly, the assay is carried out by adding a substrate mixture of ^14 C-putrescine and N,N-dimethyl-casein to an Factor XIII assay mixture previously prepared by adding thrombin and dithiothreitol to Factor XIII in glycerol/water and tris(hydroxymethyl)aminomethane hydrochloride and then adding calcium ions, thereafter, incubating at 37° for 20 minutes, withdrawing samples to a filter disk, precipitating the casein with trichloracetic acid and then counting to determine the extent of incorporation of inhibitor of ^14 C-putrescine in casein. The result for 3-(1-oxo-4,7-nonadienyl)-oxiranecarbonitrile was 60 percent inhibition at 3 mM.

C/C=C/C/C=C/CCC(=O)[C@H]1O[C@H]1C#N [3-(1-oxo-4,7-nonadienyl)oxirane-carbonitrile]
percent inhibition of Factor XIIIa (at 3 mM, Factor XIII isolated from human plasma, 37° for 20 minutes): 60%
inhibitory activity against Factor XIIIa (statement in words) (plasma transglutaminase enzyme): inhibitory activity against Factor XIIIa
